Reference: patent publication US11813338B2, “Diagnosing and treating cancer” (The Trustees of the University of Pennsylvania, priority 2013, dated 2023)

Key:
MDA-MB-231 tumors = assay: In vivo fluorescence distribution in mice bearing MDA-MB-231 tumors; parameters: species or system athymic nude mice
MDA-MB-231 cells [1] = assay: Fluorimetry of probe uptake in MDA-MB-231 cells; type: cell-based, human
Protocol: MDA-MB-231 cells were incubated with JAS239 and the fluorescence measured (Excitation 640 nm, Emission 770 nm).
(§1) MDA-MB-231 cells were treated for 2 hr with or without 10 μM JAS239 in the presence of varying concentrations of choline. Autoradiography was used to estimate phosphorylation of ^14C-labeled choline. Fluorimetry was performed under the same cellular conditions for estimation of probe uptake (Excitation 640 nm, Emission 770 nm). These values represent a ratio of JAS239 treated vs. untreated cells, and are reported relative to control.

ChoK [2] = biological target: T1, ChoK (Homo sapiens, UniProt P35790); assay: Choline competition: phosphorylation of 14C-labeled choline with varying choline concentrations; type: cell-based; settings: MDA-MB-231 cells, 2 hr, 10 μM
T1 construct: endogenous in cells; host or cells: MDA-MB-231 (and MCF10a) cells
Protocol: as §1

human ChoKα = biological target: T2, human ChoKα (Homo sapiens, UniProt P35790); assay: Immunofluorescence study of ChoKα binding specificity; type: cell-based; settings: fixed permeabilized MDA-MB-231 cells, 2 μM, added before or after ChoKα antibody
T2 construct: endogenous in cells; host or cells: MDA-MB-231 cells (fixed, permeabilized)
Protocol: (§2) Immunofluorescence studies confirmed the specificity of ChoKα binding (FIG. 7). […] Cells were treated with a Rabbit polyclonal antibody to human ChoKα followed by a Texas Red Goat Anti-Rabbit IgG secondary antibody. Confocal images were taken using a Leica DMI6000 B microscope with channels for Texas Red (Ex: 594 nm, Em: 600-630 nm), and JAS239 (Ex: 633 nm, Em: 728-800 nm).

ChoK [3] = assay: ChoK activity by 14C-labeled choline uptake, TLC/autoradiography, in MDA-MB-231 cells; type: cell-based, human; settings: for ChoK inhibition (PC production as % control): MDA-MB-231 cells, increasing concentrations, 14 h following 14C-choline addition; for IC50 of ChoK inhibition: relative to positive control MN58b
Protocol: ChoK activity was assessed in triple-negative MDA-MB-231 breast cancer cells and in non-transformed MCF10a breast epithelial cells using ^14C-labeled choline uptake.
MDA-MB-231 cells and non-malignant MCF-10a cells were incubated for 14 hr with JAS239 and analyzed by TLC/autoradiography after ^14C-choline labeling.
MDA-MB-231 cells were incubated with increasing concentrations of JAS239 or JAS240. 14 h following ^14C-choline addition, cells were extracted for TLC/autoradiography analysis. […] MN58b was used as positive control.

MDA-MB-231 cells [4] = assay: Fluorescent confocal microscopy, subcellular localization; type: cell-based, human; settings: 2 μM
Protocol: as §2

T2 sequence (P35790 whole entry): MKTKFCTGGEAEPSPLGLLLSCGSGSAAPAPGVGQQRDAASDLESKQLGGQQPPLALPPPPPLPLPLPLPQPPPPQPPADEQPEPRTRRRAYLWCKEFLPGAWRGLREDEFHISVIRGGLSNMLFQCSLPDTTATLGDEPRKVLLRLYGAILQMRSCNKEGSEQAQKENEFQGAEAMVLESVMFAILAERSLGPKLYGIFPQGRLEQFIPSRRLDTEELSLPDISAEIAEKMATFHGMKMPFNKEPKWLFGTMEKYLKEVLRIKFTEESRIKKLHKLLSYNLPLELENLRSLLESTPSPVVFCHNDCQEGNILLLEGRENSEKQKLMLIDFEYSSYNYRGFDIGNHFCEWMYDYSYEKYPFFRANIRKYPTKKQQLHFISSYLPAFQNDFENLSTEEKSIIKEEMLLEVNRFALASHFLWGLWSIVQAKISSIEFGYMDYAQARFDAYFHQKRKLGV
T1 sequence (P35790 whole entry): as above

Tissue accumulation of probe fluorescence (MDA-MB-231 tumors; 20 nmol i.v., 15 min post-injection, Ex. 745 nm, Em 800 nm) | Fluorescence in background muscle tissue (MDA-MB-231 tumors; excised tissue, dual CCD fluorescence camera) | Mode of ChoK inhibition (ChoK [2]) | Specificity of binding to ChoKα (human ChoKα) | Structure (SMILES) | Time by which cell uptake is detectable (MDA-MB-231 cells [1]) [min] | Cell uptake versus exogenous choline concentration (MDA-MB-231 cells [1]; MDA-MB-231 cells, 10 μM, 2 hr) | Cell uptake versus probe concentration (MDA-MB-231 cells [1]; MDA-MB-231 cells, Excitation 640 nm, Emission 770 nm) | Time by which ChoK inhibition is present (ChoK [3]) [min] | Sensitivity of MDA-MB-231 cells versus non-transformed MCF10a cells (ChoK [3]; 14 hr incubation, 14C-choline labeling) | ChoK inhibition (PC production as % control) (ChoK [3]) | IC50 of ChoK inhibition (ChoK [3]) | Subcellular localization (MDA-MB-231 cells [4])
accumulate in the kidneys and tumor | no fluorescence detectable | competitive inhibitor of ChoK | specific to ChoKα | CC1(C)C(/C=C/C=C/C=C/C=C2\N(CCO)c3ccccc3C2(C)C)=[N+](CCO)c2ccccc21 [JAS239, 1-(2-hydroxyethyl)-2-((1E,3E,5E)-7-((Z/E)-1-(2-hydroxyethyl)-3,3-dimethylindolin-2-ylidene)hepta-1,3,5-trien-1-yl)-3,3-dimethyl-3H-indol-1-ium chloride] | ≤ 15 | independent of exogenous choline concentration | linearly proportional to concentration | ≤ 60 | greater sensitivity | ChoK inhibition at physiologically-relevant concentrations | comparable to MN58b | co-localizes with the cytosolic expression of ChoK
– | – | – | – | CN1\C(=C/C=C/C=C/C=C/C2=[N+](C)c3ccccc3C2(C)C)C(C)(C)c2ccccc21.[I-] [JAS240, 1,3,3-trimethyl-2-((1E,3E,5E)-7-((Z/E)-1,3,3-trimethylindolin-2-ylidene)hepta-1,3,5-trien-1-yl)-3H-indol-1-ium iodide] | – | – | – | – | – | ChoK inhibition at physiologically-relevant concentrations | comparable to MN58b | localized to the cytoplasm
